Some test systems named below: HL-60(TB) leukemia; A549 NSCLC; OVCAR-8 ovarian; HOP-62 NSCLC; SF-268 CNS; MDA-MB-435; RXF 393 renal; SNB-75 CNS; M14 melanoma; NCI-H522 lung.
Common to all, as to assay: growth of human tumour cells (NCI), 48 h

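The compound was tested at five concentrations on cells cultured in 96-well plates, with a 48-hour exposure period. Here, GI50 denotes the concentration required for 50% inhibition of growth. TGI: concentration producing complete growth inhibition.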 A value given as a limit tells only on which side of the number the result lay.

On to `Cc1cccc2c3c(sc12)C(c1ccc(F)cc1)C(C#N)=C(N)O3` (stereo not given), for which the GI50 in the assay on HL-60(TB) leukemia is 38.9 nM; in the assay with A549 NSCLC, 135 nM; in the assay on OVCAR-8 ovarian, 128 nM; in the assay with HOP-62 NSCLC, 127 nM; with SF-268 CNS it was 350 nM; with MDA-MB-435 it was 22.2 nM. Besides, the GI50 is 27.1 nM in the assay on RXF 393 renal, 23.6 nM with SNB-75 CNS, 97.6 nM in the assay on M14 melanoma and 35.3 nM in the assay with NCI-H522 lung. In addition, the TGI in the assay with HL-60(TB) leukemia was determined as 731 nM; in the assay with A549 NSCLC, 14.1 µM; with OVCAR-8 ovarian, 14.2 µM; in the assay on HOP-62 NSCLC, 12.9 µM; in the assay on SF-268 CNS, 17.5 µM; in the assay with MDA-MB-435 it was 51.4 nM. Further, the TGI in the assay with RXF 393 renal amounted to 0.0825 µM; in the assay on SNB-75 CNS, 0.0936 µM; with M14 melanoma, 11.7 µM; in the assay on NCI-H522 lung, 1.49 µM.

In the case of `C/C(=N\NC(=S)N1CCCCCC1)c1cccc2cccnc12`, the TGI in the assay on HL-60(TB) leukemia was > 45700 nM; in the assay on A549 NSCLC it was > 100 µM; with OVCAR-8 ovarian, > 100 µM; in the assay on HOP-62 NSCLC it was > 70.7 µM; in the assay on SF-268 CNS it was > 100 µM; in the assay on MDA-MB-435 it was > 100000 nM. In addition, the TGI in the assay on RXF 393 renal is > 100 µM; with SNB-75 CNS it was > 91.6 µM; in the assay on M14 melanoma, 14 µM; with NCI-H522 lung, > 100 µM.

For `Cc1ccc(C2NC(=O)c3ccccc3N2)c(C)c1` (stereo not given), the TGI was 1610 nM with HL-60(TB) leukemia; > 100 µM in the assay on A549 NSCLC; > 71.5 µM in the assay with OVCAR-8 ovarian; > 100 µM in the assay with HOP-62 NSCLC; > 100 µM in the assay with SF-268 CNS; 1190 nM in the assay on MDA-MB-435. Further, the TGI with RXF 393 renal was > 76.2 µM; in the assay on SNB-75 CNS, 6.8 µM; in the assay on M14 melanoma, 40 µM; with NCI-H522 lung it was 4.91 µM.

These data come from PubChem BioAssay (NCI).
